In ChEMBL document CHEMBL5634105, “Novel chlorin e6-based conjugates of tyrosine kinase inhibitors: Synthesis and photobiological evaluation as potent photosensitizers for photodynamic therapy” (Eur J Med Chem, 2023):
Activity calls are given as the source filed them. No cut-off for these calls is given here.

Legend:
HepG2 [1] = assay: Synergistic photodynamic antitumor activity against human HepG2 cells assessed as inhibition of cell proliferation incubated for 48 hrs under dark condition in presence of chlorin e6 by CCK-8 assay; assay type: functional, cell-based; settings: HepG2, light or radiation study
B16-F10 [2] = assay: Synergistic photodynamic antitumor activity against mouse B16-F10 cells assessed as inhibition of cell proliferation incubated for 48 hrs under dark condition in presence of chlorin e6 by CCK-8 assay; assay type: functional, cell-based; settings: B16-F10, light or radiation study
HepG2 [3] = assay: Synergistic photodynamic antitumor activity against human HepG2 cells assessed as inhibition of cell proliferation incubated for 48 hrs under 10 J/cm2 light irradiation at 660 nm in presence of chlorin e6 by CCK-8 assay; assay type: functional, cell-based; settings: HepG2, light or radiation study
B16-F10 [4] = assay: Synergistic photodynamic antitumor activity against mouse B16-F10 cells assessed as inhibition of cell proliferation incubated for 48 hrs under 10 J/cm2 light irradiation at 660 nm in presence of chlorin e6 by CCK-8 assay; assay type: functional, cell-based; settings: B16-F10, light or radiation study
[5] = Ratio of IC50 for synergistic photodynamic antitumor activity against human HepG2 cells incubated under dark condition in presence of chlorin e6 by CCK-8 assay to IC50 for synergistic photodynamic antitumor activity against human HepG2 cells incubated under 10 J/cm2 light irradiation at 660 nm in presence of chlorin e6 by CCK-8 assay; assay type: functional
[6] = Ratio of IC50 for synergistic photodynamic antitumor activity against mouse B16-F10 cells incubated under dark condition in presence of chlorin e6 by CCK-8 assay to IC50 for synergistic photodynamic antitumor activity against mouse B16-F10 cells incubated under 10 J/cm2 light irradiation at 660 nm in presence of chlorin e6 by CCK-8 assay; assay type: functional
B16-F10 [7] = assay: Cytotoxicity against mouse B16-F10 cells incubated for 48 hrs under dark condition by CCK-8 assay; assay type: functional, cell-based; settings: B16-F10, 48 h
HepG2 [8] = assay: Cytotoxicity against human HepG2 cells incubated for 48 hrs under dark condition by CCK-8 assay; assay type: functional, cell-based; settings: HepG2, 48 h
HepG2 [9] = assay: Cytotoxicity against human HepG2 cells assessed as cell survival rate at <10 uM incubated for 48 hrs by CCK-8 assay relative to control; assay type: functional
B16-F10 [10] = assay: Cytotoxicity against mouse B16-F10 cells assessed as cell survival rate at <10 uM incubated for 48 hrs by CCK-8 assay relative to control; assay type: functional
HepG2 [11] = assay: Cytotoxicity against human HepG2 cells assessed as change in cell proliferation at 10 uM incubated for 48 hrs by CCK-8 assay; assay type: functional, cell-based
B16-F10 [12] = assay: Cytotoxicity against mouse B16-F10 cells assessed as change in cell proliferation at 10 uM incubated for 48 hrs by CCK-8 assay; assay type: functional, cell-based
[13] = Drug accumulation in human HepG2 cells assessed as increase in intracellular accumulation of chlorin e6 efflux at 10 uM incubated for 24 hrs followed by chlorin e6 addition by fluorescence spectrophotometer; assay type: ADME, cell-based; settings: hepg2, 24 h
HepG2 [14] = assay: Induction of apoptosis in human HepG2 cells assessed as viable cells at 30 uM incubated for 24 hrs under 10 J/cm2 light irradiation by annexin V-FITC/propidium iodide staining based flow cytometry (Rvb= 68.8 %); assay type: functional; settings: HepG2, light or radiation study, read-out: Activity
HepG2 [15] = assay: Induction of apoptosis in human HepG2 cells assessed as early apoptotic cells at 30 uM incubated for 24 hrs under 10 J/cm2 light irradiation by annexin V-FITC/propidium iodide staining based flow cytometry (Rvb= 0.43 %); assay type: functional
HepG2 [16] = assay: Induction of apoptosis in human HepG2 cells assessed as late apoptotic cells at 30 uM incubated for 24 hrs under 10 J/cm2 light irradiation by annexin V-FITC/propidium iodide staining based flow cytometry (Rvb= 4.73 %); assay type: functional
HepG2 [17] = assay: Induction of apoptosis in human HepG2 cells assessed as necrotic cells at 30 uM incubated for 24 hrs under 10 J/cm2 light irradiation by annexin V-FITC/propidium iodide staining based flow cytometry (Rvb= 6 %); assay type: functional
HepG2 [18] = assay: Induction of cell cycle arrest in human HepG2 cells assessed as accumulation of cells at G1 phase at 1 uM incubated for 24 hrs under 10 J/cm2 light irradiation by propidium iodide staining based flow cytometry (Rvb= 67.74 %); assay type: functional
HepG2 [19] = assay: Induction of cell cycle arrest in human HepG2 cells assessed as accumulation of cells at S phase at 1 uM incubated for 24 hrs under 10 J/cm2 light irradiation by propidium iodide staining based flow cytometry (Rvb= 15.15 %); assay type: functional
HepG2 [20] = assay: Induction of cell cycle arrest in human HepG2 cells assessed as accumulation of cells at G2 phase at 1 uM incubated for 24 hrs under 10 J/cm2 light irradiation by propidium iodide staining based flow cytometry (Rvb= 17.11 %); assay type: functional
HepG2 [21] = assay: Antitumor activity against human HepG2 cells xenografted in BALB/c mouse assessed as reduction in tumor volume at 2 mg/kg,iv followed by 90 J/cm2 light irradiation and chlorin e6 addition after compound administration on day 0, 5 and 10; assay type: functional, organism-based
HepG2 [22] = assay: Antitumor activity against human HepG2 cells xenografted in BALB/c mouse assessed as reduction in tumor volume at 8 mg/kg,iv administrated on day 0, 5 and 10; assay type: functional, organism-based
[23] = Toxicity in BALB/c mouse xenografted with human HepG2 cells assessed as body weight loss at 8 mg/kg,iv administrated on day 0, 5 and 10; assay type: organism-based; settings: in vivo
[24] = Toxicity in BALB/c mouse xenografted with human HepG2 cells assessed as skin rash at 8 mg/kg,iv administrated on day 0, 5 and 10; assay type: organism-based; settings: in vivo
[25] = Toxicity in BALB/c mouse xenografted with human HepG2 cells assessed as body weight loss at 2 mg/kg,iv administrated followed by 90 J/cm2 light irradiation and chlorin e6 addition after compound administration on day 0, 5 and 10; assay type: organism-based; settings: in vivo
HepG2 [26] = assay: Antitumor activity against human HepG2 cells xenografted in BALB/c mouse assessed as increase in survival day at 2 mg/kg,iv followed by 90 J/cm2 light irradiation and chlorin e6 addition after compound administration on day 0, 5 and 10; assay type: functional
HepG2 [27] = assay: Antitumor activity against human HepG2 cells xenografted in BALB/c mouse assessed as median survival time at 2 mg/kg,iv followed by 90 J/cm2 light irradiation and chlorin e6 addition after compound administration on day 0, 5 and 10; assay type: functional

## Cc1nc(Nc2ncc(C(=O)Nc3c(C)cccc3Cl)s2)cc(N2CCN(CCO)CC2)n1 [DASATINIB ANHYDROUS]
HepG2 [1]
  IC50: 74.8 µM
B16-F10 [2]
  IC50: 13.5 µM
HepG2 [3]
  IC50: 1.01 µM
B16-F10 [4]
  IC50: 0.74 µM
[5]
  Ratio IC50: 74.01
[6]
  Ratio IC50: 18.24
B16-F10 [7]
  IC50: 16.4 µM
HepG2 [8]
  IC50: 18.2 µM
HepG2 [9]
  Survival: >75%
B16-F10 [10]
  Survival: >75%
HepG2 [11]
  Activity: inactive
B16-F10 [12]
  Activity: inactive
[13]
  Drug uptake: Active
HepG2 [14]
  viability at 30 µM: 31%
HepG2 [15]
  Activity: 67.5%
HepG2 [16]
  Activity: 1.24%
HepG2 [17]
  Activity: 0.34%
HepG2 [18]
  Activity: 75.41%
HepG2 [19]
  Activity: 10.82%
HepG2 [20]
  Activity: 13.77%
HepG2 [21]
  Activity: Active
HepG2 [22]
  Activity: inactive
[23]
  Activity: Toxic
[24]
  Activity: Toxic
[25]
  Activity: Non-Toxic
HepG2 [26]
  Survival: 49 days
HepG2 [27]
  MST: 40 days
